Measured values taken from PMC10531311, “Anti-Inflammatory Activities of 8-Benzylaminoxanthines Showing High Adenosine A2A and Dual A1/A2A Receptor Affinity” (International Journal of Molecular Sciences, 2023).
Where two headings read alike, the source gives them in different places. Marks after values point to notes of the source that are not given here.

Key:
human adenosine A2AR = molecular target: T1, human adenosine A2AR (Homo sapiens, UniProt P29274); test: Radioligand binding at human adenosine A2A receptor vs. [3H]MSX-2; details: for potency as A2AR ligand compared with A1R: from Ki values of Table 1; for Ki: human recombinant receptor in CHO cells, read-out: A2AR vs. [³H]MSX-2 Ki ± SEM
T1 construct: expressed in transfected cells; host or cells: CHO cells
T1 sequence (P29274 whole entry): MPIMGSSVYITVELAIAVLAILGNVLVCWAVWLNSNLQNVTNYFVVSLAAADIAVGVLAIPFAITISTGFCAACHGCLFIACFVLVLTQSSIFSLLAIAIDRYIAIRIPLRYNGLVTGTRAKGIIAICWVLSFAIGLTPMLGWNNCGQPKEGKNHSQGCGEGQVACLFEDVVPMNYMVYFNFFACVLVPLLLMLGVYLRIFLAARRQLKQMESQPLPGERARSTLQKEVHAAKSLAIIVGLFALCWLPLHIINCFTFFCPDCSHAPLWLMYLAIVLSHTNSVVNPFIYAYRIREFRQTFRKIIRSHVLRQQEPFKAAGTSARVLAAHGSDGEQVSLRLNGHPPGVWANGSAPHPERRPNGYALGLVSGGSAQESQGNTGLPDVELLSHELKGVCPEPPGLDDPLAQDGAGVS
Description: (§1) Affinities for adenosine receptors were evaluated in radioligand binding assays as previously described. Human adenosine receptors were stably expressed in CHO cells. The following radioligands were used: [^3H]2-chloro-N^6-cyclopentyladenosine ([^3H]CCPA) for A1R; [^3H]3-(3-hydroxypropyl)-7-methyl-8-(m-methoxystyryl)-1-propargylxanthine ([^3H]MSX-2) for A2AR; [^3H]8-(4-(4-(4-chlorophenyl)piperazine-1-sulfonyl)phenyl)-1-propylxanthine ([^3H]PSB-603) for A2BR; [^3H]phenyl-8-ethyl-4-methyl-(8R)-4,5,7,8-tetrahydro-1H-imidazo [2,1-i]purine-5-one ([^3H]PSB-11) for A3R. Initially, compounds were tested at a concentration of 1 µM. […] At least three independent experiments were performed. Data were analyzed using GraphPad PRISM version 5.0 or higher (Graph Pad, San Diego, CA, USA). Ki were calculated using the Cheng–Prusoff equation.

human adenosine A3R = molecular target: T2, human adenosine A3R (Homo sapiens, UniProt P0DMS8); test: Radioligand binding at human adenosine A3 receptor vs. [3H]PSB-11; details: for inhibition at 1 µM: CHO cells, read-out: A3R vs. [H³]PSB-11 % Inhibition ± SEM at 1 µM; for Ki: human recombinant receptor in CHO cells, read-out: A3R vs. [H³]PSB-11 Ki ± SEM
T2 construct: expressed in transfected cells; host or cells: CHO cells
T2 sequence (P0DMS8 1-318): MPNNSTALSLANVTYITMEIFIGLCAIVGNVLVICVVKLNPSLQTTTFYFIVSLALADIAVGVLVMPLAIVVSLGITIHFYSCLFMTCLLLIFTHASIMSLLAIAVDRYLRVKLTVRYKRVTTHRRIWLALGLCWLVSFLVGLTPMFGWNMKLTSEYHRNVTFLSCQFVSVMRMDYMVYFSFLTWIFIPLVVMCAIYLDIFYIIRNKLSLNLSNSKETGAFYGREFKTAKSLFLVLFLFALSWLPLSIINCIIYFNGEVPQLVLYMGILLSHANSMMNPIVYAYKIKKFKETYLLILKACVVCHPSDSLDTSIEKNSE
Description: as §1

[1] = Metabolic stability in human liver microsomes; format: in vitro ADME; details: for number of metabolites formed: HLMs, 120 min; for remaining at 2 h: human, liver microsomes, after 120 min of incubation with HLMs, read-out: % Remaining in the Reaction Mixture
Description: In our study, the compounds were incubated for 120 min with HLMs, followed by liquid chromatography-mass spectrometry (LC-MS) to identify the formed metabolites.
Human liver microsomes (HLMs) were purchased from Sigma-Aldrich (St. Louis, MO, USA; catalog nr M9066-1VL). The studies with microsomes were supported by MetaSite 6.0.1 software provided by Molecular Discovery Ltd. (Hertfordshire, UK), which allowed for the determination of the most probable sites of metabolism. The compounds were incubated with HLMs for 120 min. After the addition of methanol and centrifugation, the supernatants were analyzed with the Waters ACQUITY™ TQD system (Waters, Milford, CT, USA). All reference drugs used (caffeine, ketoconazole, quinidine and sulfaphenazole) were purchased from Sigma-Aldrich (St. Louis, MO, USA).

[2] = PAMPA blood brain barrier permeability; format: in vitro ADME
Description: The ability of compounds, especially those intended to act in the CNS, to penetrate the blood-brain barrier (BBB) is an important property to consider in the initial stages of drug candidate screening. The PAMPA assay is a commonly used test to assess the passive permeation of the BBB [17]. In our study, caffeine was used as a highly permeable compound. […] After 5 h of incubation at room temperature, the results were analyzed by LC-MS, and the permeability coefficients (Pe) were calculated.
For permeability evaluation, a PAMPA Gentest™ pre-coated […] system, provided by Corning (Tewksbury, MA, USA), was used. The precise procedure was previously described. The permeability coefficient Pe was calculated based on the given equations. Concentrations of the tested compounds in the apical and basolateral wells were determined by LC/MS analysis using an internal standard.

[3] = system: carrageenan-induced paw edema in rats; test: Carrageenan-induced paw edema test; format: in vivo, Wistar rats; details: 20 mg/kg ip; for Change in Edema Volume 1 h / inhibition of edema, first hour: 1 h; for Change in Edema Volume 2 h / inhibition of edema, second hour: 2 h; for Change in Edema Volume 3 h / inhibition of edema, third hour: 3 h
Description: The carrageenan test is used to evaluate the anti-inflammatory effect, as the injection of this compound into the hind paw of an animal induces long-lasting edema. The aim of the present study was to evaluate the anti-inflammatory (antiedematous) activity of the compounds tested: 19, 22 and 24. The compounds were administered at a dose of 20 mg/kg of body weight (bw).
The in vivo experiments were carried out on male albino Swiss mice weighing 18–26 g and male Wistar rats weighing 150–180 g. The animals were housed in constant temperature facilities exposed to a 12:12 light-dark cycle and maintained on a standard pellet diet and tap water given ad libitum. The control and experimental groups consisted of 6–8 animals each. The investigated compounds were intraperitoneally (ip) administered in the form of a suspension in 0.5% methylcellulose. Control animals received the equivalent volume of solvent. All procedures were conducted according to the guidelines of ICLAS (International Council on Laboratory Animals Science) and were approved by the Local Ethics Committee of the Jagiellonian University in Kraków.
Rats were divided into four groups, one of them being the control. In order to produce inflammation, 0.1 mL of 1% carrageenan solution in water was injected into the hind paw subplantar tissue of rats, according to the modified method of C. A. Winter and P. Lence. […] Prior to the administration of test substances, paw diameters were measured by dividers and recorded. The investigated compounds were administered at a dose of 20 mg/kg, ip (as a suspension in methylcellulose), prior to carrageenan injection. […] After these administrations, paw diameters were measured at 1, 2 and 3 h. The edema % and edema inhibition % were calculated according to the formulas given below. Edema% = (N′ × 100)/N Edema inhibition% = (N – N′ × 100)/N
N: Paw diameters measured 1, 2 and 3 h after injection of carrageenan to the control group—paw diameters at the beginning.
N′: Paw diameters measured 1, 2 and 3 h after injection of carrageenan to the test groups—paw diameters at the beginning.

[4] = system: BV-2 cells treated with LPS; test: Griess assay, NO production; details: BV-2, LPS 1 μg/mL 24 h; at the lowest concentrations (19: 100 nM; 22: 100 and 200 nM)
Description: To assess the ability of compounds to inhibit NO production, the Griess assay was applied. This is a colorimetric assay to measure the levels of nitrite (NO2^−), which is one of the primary and stable metabolites of NO. The anti-inflammatory activity of compounds was examined in BV-2 cells treated with LPS as previously described [19]. Briefly, BV-2 cells were first pre-treated with increasing concentrations of tested compounds for 1 h, followed by LPS (1 μg/mL) stimulation for 24 h. Together with the Griess assay, the 3-(4,5-dimethylthiazol-2-yl)-5-(3-carboxymethoxyphenyl)-2-(4-sulfophenyl)-2H-tetrazolium (MTS) assay was performed to ensure that the decrease in NO level was not an effect of toxicity.
Griess reagent (Sigma-Aldrich, Saint Louis, MO, USA, G4410) was freshly prepared by dissolving 1 g in ultrapure water and mixing by inversion for about 4 min under protection from light. […] The plate was incubated for 15 min at room temperature and the absorbance was read at 540 nm using the EnSpire microplate reader (PerkinElmer, Waltham, MA, USA). Data were analyzed by direct comparison based on the average absorbance of LPS treatment, compound treatment or co-treatment with LPS, performed by normalizing treated cells (compound alone or co-treatment with LPS) to LPS-treated cells set at 100%.

[5] = 100 μM in PBS, 5 h, room temperature, triplicate
[6] = 100 μM in PBS, 5 h, room temperature, triplicate, read-out: Pe ± SD

Row | Structure (SMILES) | potency as A2AR ligand compared with A1R (human adenosine A2AR) | Ki (human adenosine A2AR) [nM] | inhibition at 1 µM (human adenosine A3R) [%] | Ki (human adenosine A3R) [nM] | number of metabolites formed [1] | remaining at 2 h [1] [%] | Drug Retention [2] [%] | Pe ± SD [2, 5] | Papp at 5 h, 100 μM [2, 6] [×10⁻⁶ cm/s] | Papp at 5 h, 100 μM ([2]; read-out: Permeable) [×10⁻⁶ cm/s] | Change in Edema Volume 1 h [3] | inhibition of edema, first hour [3] [%] | Change in Edema Volume 2 h [3] | inhibition of edema, second hour [3] [%] | Change in Edema Volume 3 h [3] | inhibition of edema, third hour [3] [%] | anti-inflammatory activity in Griess assay (in words) [4]
1 | C#CCn1c(=O)c2c(nc(NCc3ccccc3Cl)n2C)n(C)c1=O [compound 19, 8-((2-Chlorobenzyl)amino)-3,7-dimethyl-1-(prop-2-yn-1-yl)-3,7-dihydro-1H-purine-2,6-dione] | four times more potent as A2AR ligand | 96 ± 31 | 9 | > 1000 | two metabolites | > 95 | 51.78 | greater than 1.5 10^−6 cm/s | 3.13 ± 0.82 | ≥ 1.5 | 0.56 ± 0.13 mL | 28.2 | 0.72 ± 0.09 mL | 35.7 | 1.10 ± 0.21 mL | 17.3 | moderate anti-inflammatory activity
2 | C#CCn1c(=O)c2c(nc(NCc3c(F)cccc3Cl)n2C)n(C)c1=O [compound 22, 8-((2-Chloro-6-fluorobenzyl)amino)-3,7-dimethyl-1-(prop-2-yn-1-yl)-3,7-dihydro-1H-purine-2,6-dione] | twice more potent as A2AR ligand | 62 ± 5 | 21 | > 1000 | one metabolite | > 90 | 68.62 | 0.37 10^−6 cm/s | 0.37 ± 0.01 | ≤ 1.5 | 0.49 ± 0.08 mL | 37.1 | 0.91 ± 0.05 mL | 18.7 | 0.92 ± 0.06 mL | 30.8 | moderate anti-inflammatory activity
3 | C#CCn1c(=O)c2c(nc(NCc3cccc(Br)c3)n2C)n(C)c1=O [compound 24, 8-((3-Bromobenzyl)amino)-3,7-dimethyl-1-(prop-2-yn-1-yl)-3,7-dihydro-1H-purine-2,6-dione] | equal potency for both receptors | 77 ± 24 | 7 | > 1000 | one metabolite | > 95 | 93.30 | 0.89 10^−6 cm/s | 0.89 ± 0.71 | ≤ 1.5 | 0.38 ± 0.02 ^a mL | 51.2 | 0.63 ± 0.14 ^a mL | 43.8 | 0.69 ± 0.01 ^b mL | 48.1 | 
